Active and inactive are the calls of the source. The rule behind the calls is not given here.

One assay addresses T1, Calpain-1 catalytic subunit (Homo sapiens, UniProt P07384).
T1 sequence (P07384 whole entry): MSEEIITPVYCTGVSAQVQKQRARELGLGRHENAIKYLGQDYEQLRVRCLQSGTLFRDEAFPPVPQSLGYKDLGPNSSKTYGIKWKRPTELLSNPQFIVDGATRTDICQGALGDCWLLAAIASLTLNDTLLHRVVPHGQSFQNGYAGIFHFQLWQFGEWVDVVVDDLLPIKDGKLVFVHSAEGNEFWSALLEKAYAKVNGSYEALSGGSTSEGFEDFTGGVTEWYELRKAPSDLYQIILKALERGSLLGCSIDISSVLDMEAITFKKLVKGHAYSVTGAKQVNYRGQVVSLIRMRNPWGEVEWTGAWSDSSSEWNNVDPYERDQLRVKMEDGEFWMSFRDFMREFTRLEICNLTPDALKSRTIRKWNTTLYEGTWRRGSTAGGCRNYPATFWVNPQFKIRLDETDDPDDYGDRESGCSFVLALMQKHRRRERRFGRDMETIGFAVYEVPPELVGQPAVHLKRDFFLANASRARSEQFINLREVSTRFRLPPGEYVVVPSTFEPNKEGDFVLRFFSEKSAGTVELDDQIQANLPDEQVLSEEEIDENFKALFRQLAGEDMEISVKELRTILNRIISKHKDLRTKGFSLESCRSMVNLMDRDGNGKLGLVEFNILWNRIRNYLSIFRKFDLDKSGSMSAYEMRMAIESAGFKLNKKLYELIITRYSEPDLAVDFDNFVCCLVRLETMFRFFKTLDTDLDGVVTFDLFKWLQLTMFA
Put plainly: Inhibition of calpain 1 in human erythrocytes using Suc-LLVY-AMC as substrate by fluorescence assay.
Settings: not given
It counts as cell-based.
Usually IC50 stands for the concentration that inhibits the measured activity by half. Molecule `CC1(Cc2ccccc2)OC(=O)c2c1ccn(CCc1ccc(Cl)cc1)c2=O` (racemic) returned an IC50 of 29.6 µM.

A further assay concerns the target Cathepsin B (Homo sapiens) (UniProt P07858). Put plainly: Inhibition of cathepsin B in human hepatocytes using Z-RR-AMC as substrate by fluorescence assay. It counts as cell-based. The following applies: Hepatocyte.
What is called inhibition is the percentage by which the read-out fell short of the control. Turning to `O=C1OC2(CCCCC2)c2ccn(CC(O)c3ccccc3)c(=O)c21` (stereo not given), the inhibition result is “inactive”.
On to `CC1(c2ccccc2)OC(=O)c2c1ccn(CCCN1CCOCC1)c2=O` (racemic), for which the inhibition entry is “inactive”.
On to `NC(=S)Nn1ccc2c(c1=O)C(=O)OC21CCCCC1`, for which the inhibition result is “inactive”.
Still for that read-out and setting: the entry for `CC1(C)OC(=O)c2c1ccn(-c1ccc(S(=O)(=O)NC(=O)c3ccccc3)cc1)c2=O` is “inactive”; for `Cc1cc(-n2ccc3c(c2=O)C(=O)OC32CCCCC2)n(-c2ccccc2)n1` it is “inactive”; for `O=C1OC2(CCCCC2)c2ccn(CCCN3CCOCC3)c(=O)c21` it is “inactive”.
The same measure, in the same setting: the entry for `CCN(CC)CC(O)Cn1ccc2c(c1=O)C(=O)OC2(C)CCc1ccccc1` (mixture of isomers) is “inactive”; for `CC(C)CC1(C)OC(=O)c2c1ccn(CC(O)c1ccccc1)c2=O` (stereo not given) it is “inactive”.
As to `CC(C)CC1(C)OC(=O)c2c1ccn(CCc1ccc(Cl)cc1)c2=O` (racemic), the inhibition result was “inactive”.
In the case of `CCN(CC)CC(O)Cn1ccc2c(c1=O)C(=O)OC21CCCCC1` (stereo not given), the inhibition result is “inactive”.
Turning to `CC1(CCc2ccccc2)OC(=O)c2c1ccn(CCCN1CCOCC1)c2=O` (racemic), the inhibition result is “inactive”.
In the case of `CC(C)CC1(C)OC(=O)c2c1ccn(CCCN1CCOCC1)c2=O` (racemic), the inhibition entry is “inactive”.
`O=C1OC2(CCCCC2)c2ccn(CC(O)CN3CCOCC3)c(=O)c21` (stereo not given): the inhibition result was “inactive”.
On to `CC1(CCc2ccccc2)OC(=O)c2c1ccn(-c1ccc(S(N)(=O)=O)cc1)c2=O` (racemic), for which the inhibition result is “inactive”.
As for `Cn1ccc2c(c1=O)C(=O)OC2(C)c1ccccc1` (racemic), the inhibition result is “inactive”.
Still for that read-out and setting: the entry for `CC1(Cc2ccccc2)OC(=O)c2c1ccn(CCc1ccc(Cl)cc1)c2=O` (racemic) is “inactive”.

The species named for another assay is Oryctolagus cuniculus. Put plainly: Inhibition of chymotrypsin-like activity of 20S proteasome in rabbit erythrocytes using Suc-LLVY-AMC as substrate at 100 uM preincubated for 15 mins measured after 45 mins by fluorescence assay relative to control. Format: cell-based.
Settings: not given
Molecule `NC(=S)Nn1ccc2c(c1=O)C(=O)OC21CCCCC1` displayed an inhibition of 23.8%.

Another assay is filed under the species Oryctolagus cuniculus. Put plainly: Inhibition of caspase-like activity of 20S proteasome in rabbit erythrocytes using Z-LLE-betaNA as substrate at 100 uM preincubated for 15 mins measured after 45 mins by fluorescence assay relative to control.
Settings: not given
For the molecule `CC(C)CC1(C)OC(=O)c2c1ccn(CCCN1CCOCC1)c2=O` (racemic), the inhibition is 31.8%.
In the case of `O=C1OC2(CCCCC2)c2ccn(CC(O)CN3CCOCC3)c(=O)c21` (stereo not given), the inhibition was determined as 30.7%.

Tested on in the next assay: not listed separately
Nature of the assay: Inhibition of caspase-like activity of 20S proteasome in rabbit erythrocytes using Z-LLE-betaNA as substrate preincubated for 15 mins measured after 45 mins by fluorescence assay.
Settings: not given
Format: cell-based, Oryctolagus cuniculus.
For `NC(=S)Nn1ccc2c(c1=O)C(=O)OC21CCCCC1`, the IC50 result was “Not Active”.
The same measure, in the same setting: then `Cc1cc(-n2ccc3c(c2=O)C(=O)OC32CCCCC2)n(-c2ccccc2)n1`, with “Not Active”.

The same assay, now with this note: read-out: IC50.
In the case of `O=C1OC2(CCCCC2)c2ccn(CC(O)c3ccccc3)c(=O)c21` (stereo not given), the IC50 is 11.9 µM.
For the molecule `CC1(c2ccccc2)OC(=O)c2c1ccn(CCCN1CCOCC1)c2=O` (racemic), the IC50 was 56.4 µM.
Take `CC1(C)OC(=O)c2c1ccn(-c1ccc(S(=O)(=O)NC(=O)c3ccccc3)cc1)c2=O`: the IC50 was 4.5 µM.
`O=C1OC2(CCCCC2)c2ccn(CCCN3CCOCC3)c(=O)c21`: the IC50 was 46.9 µM.
Regarding `CCN(CC)CC(O)Cn1ccc2c(c1=O)C(=O)OC2(C)CCc1ccccc1` (mixture of isomers), the IC50 amounted to 2.5 µM.
As to `CC(C)CC1(C)OC(=O)c2c1ccn(CC(O)c1ccccc1)c2=O` (stereo not given), the IC50 was 4.8 µM.
On the same count and under the same terms, then `CC(C)CC1(C)OC(=O)c2c1ccn(CCc1ccc(Cl)cc1)c2=O` (racemic), with 12.7 µM; and `CCN(CC)CC(O)Cn1ccc2c(c1=O)C(=O)OC21CCCCC1` (stereo not given), with 6.7 µM.
In the case of `CC1(CCc2ccccc2)OC(=O)c2c1ccn(CCCN1CCOCC1)c2=O` (racemic), the IC50 was 19.6 µM.
The same measure, in the same setting: then `CC1(CCc2ccccc2)OC(=O)c2c1ccn(-c1ccc(S(N)(=O)=O)cc1)c2=O` (racemic), with 2.8 µM; and `Cn1ccc2c(c1=O)C(=O)OC2(C)c1ccccc1` (racemic), with 36 µM; and `CC1(Cc2ccccc2)OC(=O)c2c1ccn(CCc1ccc(Cl)cc1)c2=O` (racemic), with 7 µM.

Tested on in a further assay: not listed separately
Put plainly: Inhibition of trypsin-like activity of 20S proteasome in rabbit erythrocytes using Boc-LRR-AMC as substrate preincubated for 15 mins measured after 45 mins by fluorescence assay. It counts as cell-based, Oryctolagus cuniculus.
Settings: not given
With `O=C1OC2(CCCCC2)c2ccn(CC(O)c3ccccc3)c(=O)c21` (stereo not given), the IC50 entry is on record as “Not Active”.
Still for that read-out and setting: then `CC1(c2ccccc2)OC(=O)c2c1ccn(CCCN1CCOCC1)c2=O` (racemic), with “Not Active”; and `NC(=S)Nn1ccc2c(c1=O)C(=O)OC21CCCCC1`, with “Not Active”; and `CC1(C)OC(=O)c2c1ccn(-c1ccc(S(=O)(=O)NC(=O)c3ccccc3)cc1)c2=O`, with “Not Active”.
Regarding `Cc1cc(-n2ccc3c(c2=O)C(=O)OC32CCCCC2)n(-c2ccccc2)n1`, the IC50 entry is recorded as “Not Active”.
Regarding `O=C1OC2(CCCCC2)c2ccn(CCCN3CCOCC3)c(=O)c21`, the IC50 entry is “Not Active”.
For `CCN(CC)CC(O)Cn1ccc2c(c1=O)C(=O)OC2(C)CCc1ccccc1` (mixture of isomers), the IC50 entry is on record as “Not Active”.
Take `CC(C)CC1(C)OC(=O)c2c1ccn(CC(O)c1ccccc1)c2=O` (stereo not given): the IC50 result is recorded as “Not Active”.
On the same count and under the same terms, the entry for `CC(C)CC1(C)OC(=O)c2c1ccn(CCc1ccc(Cl)cc1)c2=O` (racemic) is “Not Active”; for `CCN(CC)CC(O)Cn1ccc2c(c1=O)C(=O)OC21CCCCC1` (stereo not given) it is “Not Active”; for `CC1(CCc2ccccc2)OC(=O)c2c1ccn(CCCN1CCOCC1)c2=O` (racemic) it is “Not Active”.
For the molecule `CC(C)CC1(C)OC(=O)c2c1ccn(CCCN1CCOCC1)c2=O` (racemic), the IC50 entry was “Not Active”.
With `O=C1OC2(CCCCC2)c2ccn(CC(O)CN3CCOCC3)c(=O)c21` (stereo not given), the IC50 entry is given as “Not Active”.
`CC1(CCc2ccccc2)OC(=O)c2c1ccn(-c1ccc(S(N)(=O)=O)cc1)c2=O` (racemic): the IC50 result was “Not Active”.
Regarding `Cn1ccc2c(c1=O)C(=O)OC2(C)c1ccccc1` (racemic), the half-inhibitory concentration (IC50) entry is “Not Active”.
For `CC1(Cc2ccccc2)OC(=O)c2c1ccn(CCc1ccc(Cl)cc1)c2=O` (racemic), the IC50 result was “Not Active”.

Tested on in the next assay: not listed separately
Nature of the assay: Inhibition of chymotrypsin-like activity of 20S proteasome in rabbit erythrocytes using Suc-LLVY-AMC as substrate preincubated for 15 mins measured after 45 mins by fluorescence assay. It counts as cell-based, Oryctolagus cuniculus.
Settings: not given
In the case of `O=C1OC2(CCCCC2)c2ccn(CC(O)c3ccccc3)c(=O)c21` (stereo not given), the half-inhibitory concentration (IC50) result is on record as “Not Active”.
Consider `CC1(c2ccccc2)OC(=O)c2c1ccn(CCCN1CCOCC1)c2=O` (racemic), for which the IC50 result is listed as “Not Active”.
`CC1(C)OC(=O)c2c1ccn(-c1ccc(S(=O)(=O)NC(=O)c3ccccc3)cc1)c2=O`: the IC50 entry is “Not Active”.
For the molecule `Cc1cc(-n2ccc3c(c2=O)C(=O)OC32CCCCC2)n(-c2ccccc2)n1`, the IC50 result is reported as “Not Active”.
On the same count and under the same terms, then `O=C1OC2(CCCCC2)c2ccn(CCCN3CCOCC3)c(=O)c21`, with “Not Active”; and `CCN(CC)CC(O)Cn1ccc2c(c1=O)C(=O)OC2(C)CCc1ccccc1` (mixture of isomers), with “Not Active”.
As to `CC(C)CC1(C)OC(=O)c2c1ccn(CC(O)c1ccccc1)c2=O` (stereo not given), the IC50 result was “Not Active”.
Same read-out and setting: the entry for `CC(C)CC1(C)OC(=O)c2c1ccn(CCc1ccc(Cl)cc1)c2=O` (racemic) is “Not Active”; for `CCN(CC)CC(O)Cn1ccc2c(c1=O)C(=O)OC21CCCCC1` (stereo not given) it is “Not Active”.
With `CC1(CCc2ccccc2)OC(=O)c2c1ccn(CCCN1CCOCC1)c2=O` (racemic), the half-maximal inhibitory concentration (IC50) entry is given as “Not Active”.
Still for that read-out and setting: the entry for `CC(C)CC1(C)OC(=O)c2c1ccn(CCCN1CCOCC1)c2=O` (racemic) is “Not Active”; for `O=C1OC2(CCCCC2)c2ccn(CC(O)CN3CCOCC3)c(=O)c21` (stereo not given) it is “Not Active”.
Turning to `CC1(CCc2ccccc2)OC(=O)c2c1ccn(-c1ccc(S(N)(=O)=O)cc1)c2=O` (racemic), the IC50 entry is listed as “Not Active”.
The same measure, in the same setting: the entry for `Cn1ccc2c(c1=O)C(=O)OC2(C)c1ccccc1` (racemic) is “Not Active”.

The assay is the same for the next values; noted with them: read-out: IC50.
As to `CC1(Cc2ccccc2)OC(=O)c2c1ccn(CCc1ccc(Cl)cc1)c2=O` (racemic), the IC50 was found to be 22.5 µM.

These data come from ChEMBL document CHEMBL2375248, “C1 and N5 derivatives of cerpegin: synthesis of a new series based on structure-activity relationships to optimize their inhibitory effect on 20S proteasome” (Bioorg Med Chem Lett, 2013).
